Results taken from patent US20080009487A1, “Treatment of athersclerotic disease” (priority 2006, published 2008).
Entries after “also recorded” stand apart in the source; their conditions may differ.

Assays:
[1] = tested on: C. pneumoniae; assay: Rabbit model of atherosclerosis accelerated by C. pneumoniae infection, high cholesterol diet; assay type: in vivo; settings: C. pneumoniae-infected rabbits; for infectious burden of Chlamydia in the vasculature (in words): versus placebo
Protocol: Thirty received three separate C. pneumoniae inoculations performed at 3-week intervals. Similarly, 15 control rabbits were intranasally inoculated with 1 mL of normal saline under the same conditions. [table] Nineteen weeks after beginning antibiotic treatment, the rabbits were euthanized. After euthanasia, hearts were examined histologically and by immunofluorescence. Animal serum samples were also examined for seropositivity to the infecting organism. […] In the current study, the time after infection and treatment with either azithromycin or rifalazil was increased by seven weeks, a more rigorous test for the durability of treatment. Consistent with previously published work, C. pneumoniae-infected rabbits accumulated more plaque than non-infected rabbits (p=0.08).

[2] = tested on: C. pneumoniae; settings: C. pneumoniae-infected rabbits, previously published study; cited from earlier work
[3] = assay type: physicochemical
Protocol: Rifalazil is a highly lipophilic molecule having limited solubility in water at physiological pH (approximately 200 ng/mL). Evidence of the highly lipophilic behavior of the molecule is illustrated in the partition coefficient (n-octanol:water) of between 70, 569 and over 900,000 in different experiments (Log P range; 4.9-5.9).

[4] = Degradation to 25-desacetyl derivative under acidic and basic conditions; assay type: physicochemical
Excerpt: Rifalazil degrades to a 25-desacetyl derivative under both acidic and basic conditions. Typical of ester hydrolysis, the degradation in highly alkaline solutions is rapid while at an acidic pH, e.g., pH 1, the degradation at room temperature is slower, approximately 6% in one hour.

[5] = tested on: Chlamydia; assay: Phase 2 study in men with non-gonococcal urethritis; assay type: in vivo; settings: single oral dose
Excerpt: (§1) Both preclinical and clinical lines of evidence support the use of rifalazil in the methods of the invention. […] In addition, based on overall safety data in animals and man, we believe that a dose of rifalazil can safely be administered, tolerated, and will likely result in clinical benefit through its anti-Chlamydia action in these patients.

[6] = tested on: C. pneumoniae; assay: Potency against C. pneumoniae relative to roxithromycin; assay type: cell-based; settings: fold more potent than roxithromycin
Excerpt: as §1

| Structure (SMILES) | infectious burden of Chlamydia in the vasculature (in words) [1] | prevention of Chlamydia-induced plaque formation (in words) [2] | partition coefficient (n-octanol:water) [3] | degradation to 25-desacetyl derivative ([4]; acidic pH 1, room temperature, in one hour) | degradation (ester hydrolysis) ([4]; highly alkaline solutions) | plaque area stenosis compared with placebo-treated animals (in words) [1] | patients in whom Chlamydia was eradicated [5] [%] | potency against C. pneumoniae relative to roxithromycin [6] [times] |
| --- | --- | --- | --- | --- | --- | --- | --- | --- |
| CC[C@H]1OC(=O)[C@H](C)[C@@H](O[C@H]2C[C@@](C)(OC)[C@@H](O)[C@H](C)O2)[C@H](C)[C@@H](O[C@@H]2O[C@H](C)C[C@H](N(C)C)[C@H]2O)[C@](C)(O)C[C@@H](C)CN(C)[C@H](C)[C@@H](O)[C@]1(C)O [azithromycin, reference compound] | reduced the infectious burden of Chlamydia in the vasculature | significant effect in preventing Chlamydia-induced plaque formation | – | – | – | – | – | – |
| CO[C@H]1/C=C/O[C@@]2(C)Oc3c(C)c(O)c4c(=O)c(c5oc6cc(N7CCN(CC(C)C)CC7)cc(O)c6nc-5c4c3C2=O)NC(=O)/C(C)=C\C=C\[C@H](C)[C@H](O)[C@@H](C)[C@@H](O)[C@@H](C)[C@H](OC(C)=O)[C@@H]1C [rifalazil, 3′-hydroxy-5′-(4-isobutyl-1-piperazinyl)benzoxazinorifamycin] | reduced C. pneumoniae burden; also recorded: reduced the infectious burden of Chlamydia in the vasculature | – | 70, 569-900,000 | approximately 6% | rapid | reduced C. pneumoniae burden and plaque area stenosis; also recorded: showed a trend in producing significantly reduced plaque area stenosis | > 86 | 2000 |
